For assay [1], the system named is ectopic E-MSCs. Kind of assay: Endothelial differentiation (CD31) of ectopic E-MSCs in co-culture with HUVECs. Type of assay: cell-based, human. As to conditions: for endothelial differentiation (CD31 expression) of E-MSCs: 1 μM, 24 h treatment, 48 h co-culture with HUVECs. The protocol:
FIG. 5: Quinagolide effect on EMSCs endothelial differentiation. A. FACS gating-strategy for the analysis of CD31^+ EMSCs after direct 48 h co-culture with HUVECs. EMSCs are gated as GFP negative population, and CD31 expression is evaluated on the described gated EMSCs after 48 h co-culture with HUVECs as percentage of CD31 APC positive events. B, C and D: Representative flow cytometry micrographs and quantification, expressed as percentage of variation respect to control co-culture, of the effect of 24 h treatment of EMSCs with 25 μM cabergoline, 1 μM sorafenib, 1 μM cabozantinib (B), 100 nM quinagolide (C) and the combination of 5 μM spiperone and 100 nM quinagolide (D) on EMSCs CD31 expression after 48 h of co-culture with HUVECs. Data are represented as mean±SD of at least three independent experiments, performed on different ectopic EMSC lines, and normalized to untreated co-culture. One-way ANova was performed: *=p<0.05 and ***=p<0.001 vs control.
(BSA)-Phosphate Buffered Saline (PBS) (Sigma). For each staining, 100,000 cells were incubated for 20 minutes at 4° C. with FITC, APC or PE-conjugated antibodies against: CD29, CD44, CD73, CD90 (BD Bioscences, Franklin Lakes, NJ, USA); CD31, CD34, CD105, CD140b, CD146, TEK receptor tyrosine kinase (Tie2), Sushi domain-containing protein 2 (SUSD2) (Miltenyi Biotech, Bergisch Gladbach, Germany); CD45 (AbD Serotec, Raleigh, NC, USA), or epithelial cell adhesion molecule (EPCAM) (BioLegend, San Diego, CA, USA). Labelled cells were washed by centrifugation and final pellet was resuspended in 200 μl of 0.1% BSA-PBS before cytofluorimetric analysis. Isotype (Miltenyi Biotec) was used as negative control.
Quinagolide powder (provided by Ferring Pharmaceuticals) was stored at 4° C. and resuspended in dimethylsulphoxide (DMSO) to a stock solution of 1 mM immediately before use. Spiperone powder (Sigma-Aldrich) was resuspended in water to a stock concentration of 1 mM and stored at −20° C. Cabergoline powder (Sigma-Aldrich) was dissolved in DMSO to a stock concentration of 25 mM and stored at −20° C. Sorafenib and cabozantinib (Sigma-Aldrich) were resuspended in DMSO to a final concentration of 10 mM and according to the manufacturer's instructions, and stored at −20° C. and −80° C., respectively. Quinagolide, spiperone and cabergoline were diluted 1:100 (final concentration 100 nM), 1:1000 (final concentration 5 μM) and 1:1000 (final concentration 25 μM) respectively. Quinagolide, cabergoline, sorafenib and cabozantinib and were administered for 24 hours during co-culture experiments, while spiperone was added to culture medium 1 h before quinagolide treatment. For invasion assays, E-MSCs were treated with spiperone 1 h before the cell detachment and quinagolide was added only when cells were plated on Matrigel. […]

The subject of assay [2] is ectopic E-MSCs. The conditions noted are these: 25 μM, previously described (Canosa et al., 2017), positive control; cited from earlier work.
Assay [3] has as its system ectopic E-MSCs. Kind of assay: Matrigel transwell invasion assay, ectopic E-MSCs. Type of assay: cell-based, human. As to conditions: 5 μM spiperone pre-treatment 1 h, then 100 nM quinagolide, ectopic EMSCs. How it is done: FIG. 4: Quinagolide effect on EMSCs invasion. A and B: Representative micrographs (A) and quantification (B) of quinagolide effect (100 nM) on eutopic and ectopic (both ovarian and peritoneal) EMSCs invasion (original magnification: ×100). C: Concentration response effect of quinagolide treated ectopic EMSCs invasion. D and E: Quantification (D) and representative micrographs (E) (original magnification: ×100) of invasion assays performed on ectopic EMSCs (both ovarian and peritoneal), treated with 100 nM quinagolide (Q100 nM), 5 μM spiperone(S) or a combination of quinagolide and spiperone (S+Q100 nM). All invasion data are represented as mean±SD of at least three independent experiments, performed on different EMSC lines, and normalized to untreated cells (CTL). One-way ANova was performed: *=p<0.05 and **=p<0.001 vs CTL. Quinagolide powder (provided by Ferring Pharmaceuticals) was stored at 4° C. and resuspended in dimethylsulphoxide (DMSO) to a stock solution of 1 mM immediately before use. Spiperone powder (Sigma-Aldrich) was resuspended in water to a stock concentration of 1 mM and stored at −20° C. Cabergoline powder (Sigma-Aldrich) was dissolved in DMSO to a stock concentration of 25 mM and stored at −20° C. […] Quinagolide, cabergoline, sorafenib and cabozantinib and were administered for 24 hours during co-culture experiments, while spiperone was added to culture medium 1 h before quinagolide treatment. […] E-MSCs were seeded in triplicate in Matrigel-precoated (100 μg Matrigel/transwell) 8-um pore transwells at a concentration of 50,000 cells per well in 200 μl of RPMI 2% FCS with/without quinagolide at the indicated concentration. To test the D2 antagonist effect, E-MSCs were pre-treated with spiperone (5 μM) for 1 h at 37° C. before cell detachment. After 48 hours, invaded E-MSCs on the bottom side of the transwell were fixed with methanol and stained with crystal violet. At least five pictures per transwell were acquired (original magnification: 100×), and the percentage of transwell area covered by invaded EMSCs was quantitatively measured by ImageJ software.

The structures appear in SMILES notation.

For `CNC(=O)c1cc(Oc2ccc(NC(=O)Nc3ccc(Cl)c(C(F)(F)F)c3)cc2)ccn1` [Sorafenib], the “endothelial differentiation (CD31 expression) of E-MSCs” value in assay [1] is reported as “no effect”.
As to `C=CCN1C[C@H](C(=O)N(CCCN(C)C)C(=O)NCC)C[C@@H]2c3cccc4[nH]cc(c34)C[C@H]21` [cabergoline], the “E-MSC's angiogenic potential” value in assay [2] is on record as “decrease”.
As for `COc1cc2nccc(Oc3ccc(NC(=O)C4(C(=O)Nc5ccc(F)cc5)CC4)cc3)c2cc1OC` [cabozantinib], in assay [1], the “endothelial differentiation (CD31 expression) of E-MSCs” value is “no effect”.
Take `O=C(CCCN1CCC2(CC1)C(=O)NCN2c1ccccc1)c1ccc(F)cc1` [spiperone]: in assay [3], the “reversal of quinagolide anti-invasive effect” value is on record as “completely reverted”. Moreover, the “block of quinagolide effect on CD31 expressing E-MSCs” value in assay [1] (5 μM spiperone one hour before 100 nM quinagolide, co-culture) was “blocked”.
